As a reminder, the IC50 is the midpoint of a concentration-inhibition curve. Higher therefore signals weaker potency in that assay.

One data set can be described thus: FaSSIF solubility (HPLC). The settings on record: positive control, range. The protocol: Compounds were first dispersed in freshly prepared FaSSIF (http://biorelevant.com/site_media/upload/documents/How_to_make_FaSSIF_FeSSIF_and_FaSSGF.pdf) buffer in 1 mg/mL respectively, and the standard samples were prepared by preparing 1 mg/mL of test compounds in DMSO. The compounds were then sufficient mixed by vortex mixer for 30 sec, and agitated at 25° C. using 300 rpm form 4 hour in thermo mixer. After incubation, the prepared samples were centrifuged at 10000 rpm for 10 min to remove the undissolved solid, the resulting supernatants were applied to HPLC.
S=Csmp=Cstd*(Asmp/Astd)*(Vstd/Vsmp)
Where C is the sample concentration in μg/mL, A is the peak area, and V is the injection volume.

In the next data set the target is PRMT5/MEP50 complex (Homo sapiens, UniProt O14744). Briefly: Biochemical assay: PRMT5/MEP50 methylation of histone H2A with 3H-SAM, filter plate scintillation. The settings on record: PRMT5/MEP50 5 nM, histone H2A 5 μM, SAM 1 μM. The protocol:
Compounds were solubilized and 3-fold diluted in 100% DMSO. […] Standard reactions were performed in a total volume of 50 μl in assay buffer, with histone H2A (5 μM final) as substrate. To this was added the PRMT5/MEP50 complex diluted to provide a final assay concentration of 5 nM and the compounds were allowed to preincubate for 15 to 20 minutes at room temperature. The reaction was initiated by adding S-[3H-methyl]-adenosyl-L-methionine (PerkinElmer) to final concentration of 1 μM. Following a 60 minutes incubation at 30° C., the reaction was stopped by adding 100 μL of 20% TCA. Each reaction was spotted onto filter plate (MultiScreen FB Filter Plate, Millipore), and washed 5 times with PBS buffer, Scintillation fluid was added to the filter plate and read in a scintillation counter. IC50 values were determined by fitting the data to the standard 4 parameters with Hill Slope using GraphPad Prism software.

A short description of data set [1]: In vivo pharmacokinetics in rat, i.v. and p.o. The settings on record: rat (SD, male, non-fasted), average, N=3. The protocol: In a rat (SD, male, non-fasted) non-crossover PK study, Example 47 was dosed at 1 mg/kg (DMA: 20% HPBCD=5:95, solution) via i.v. administration (N=3) and 1 mg/kg (0.5% Na CMC+0.5% Tween80, solution) via oral gauge (p.o.) (N=3).

PRMT5/MEP50 complex, sequence (O14744 whole entry, species assumed): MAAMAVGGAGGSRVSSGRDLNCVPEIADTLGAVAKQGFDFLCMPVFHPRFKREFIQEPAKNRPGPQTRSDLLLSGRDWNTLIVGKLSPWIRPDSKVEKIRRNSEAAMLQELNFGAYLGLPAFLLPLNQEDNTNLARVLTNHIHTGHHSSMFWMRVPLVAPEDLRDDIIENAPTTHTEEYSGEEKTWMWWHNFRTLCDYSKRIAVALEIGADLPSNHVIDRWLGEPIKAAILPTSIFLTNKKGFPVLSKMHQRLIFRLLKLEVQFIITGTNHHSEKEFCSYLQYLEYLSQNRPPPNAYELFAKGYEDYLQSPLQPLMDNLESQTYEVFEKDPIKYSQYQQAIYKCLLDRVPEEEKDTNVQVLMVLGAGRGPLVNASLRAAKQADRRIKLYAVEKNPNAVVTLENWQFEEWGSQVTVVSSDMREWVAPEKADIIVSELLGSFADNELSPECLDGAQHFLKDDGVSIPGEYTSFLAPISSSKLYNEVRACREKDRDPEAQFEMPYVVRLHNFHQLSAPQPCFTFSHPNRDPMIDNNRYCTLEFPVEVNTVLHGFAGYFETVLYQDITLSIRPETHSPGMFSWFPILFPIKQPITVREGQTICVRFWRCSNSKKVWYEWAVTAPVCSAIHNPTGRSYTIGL
PRMT5/MEP50 complex, sequence (Q9BQA1 whole entry partner, species assumed): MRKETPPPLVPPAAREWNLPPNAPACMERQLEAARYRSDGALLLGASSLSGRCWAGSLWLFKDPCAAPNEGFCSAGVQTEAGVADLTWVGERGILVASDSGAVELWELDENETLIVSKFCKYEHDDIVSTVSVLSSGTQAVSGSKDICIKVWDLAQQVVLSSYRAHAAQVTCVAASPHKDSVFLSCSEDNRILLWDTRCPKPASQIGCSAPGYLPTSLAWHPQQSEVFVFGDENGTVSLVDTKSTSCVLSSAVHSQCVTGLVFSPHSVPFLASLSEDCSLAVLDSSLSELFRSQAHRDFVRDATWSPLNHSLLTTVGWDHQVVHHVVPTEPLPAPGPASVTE

Turning to `CC(=O)CC(c1ccccc1)c1c(O)c2ccccc2oc1=O` (stereo not drawn) [Warfarin], the “FaSSIF solubility (positive controls)” value in the data set “FaSSIF solubility (HPLC)” was in the range of 10 to 25 µg/mL.

For `C[C@@]1(O)[C@@H]([C@@H](O)c2ccc(Cl)c(Cl)c2)O[C@@H](n2ccc3c(N)ncnc32)[C@@H]1O` [Example 66, (2R,3S,4R,5R)-5-(4-amino-7H-pyrrolo[2,3-d]pyrimidin-7-yl)-2-((S)-(3,4-dichlorophenyl) (hydroxy)methyl)-3-methyltetrahydrofuran-3,4-diol], at PRMT5/MEP50 complex, 707 nM corresponded to half-maximal inhibition (IC50).

Turning to `C[C@@]1(O)[C@@H]([C@H](O)c2ccc(Cl)c(Cl)c2)O[C@@H](n2ccc3c(N)ncnc32)[C@@H]1O` [Example 47, (2R,3S,4R,5R)-5-(4-amino-7H-pyrrolo[2,3-d]pyrimidin-7-yl)-2-((R)-(3,4-dichlorophenyl) (hydroxy)methyl)-3-methyltetrahydrofuran-3,4-diol], in data set [1] (1 mg/kg i.v.), the T1/2 was determined as 4.1 h, the Vss is listed as 3.1 L/kg and the blood clearance amounted to 8.8 mL/min/kg. In addition, the “dose normalized AUC” value in data set [1] (1 mg/kg p.o.) worked out at 3246 ng·kg·h/mL/mg.

Source of the values: patent US20220152072A1, “Selective Inhibitors Of Protein Arginine Methyltransferase 5 (PRMT5)” (Prelude Therapeutics, Incorporated, priority 2019, published 2022).
